A word on the IC50: it is the midpoint of a concentration-inhibition curve. Low values mean inhibition by little substance, high ones a need for much substance.

Values after ≈ are worked out from the molar mass of the structure shown.

For one test, the system named is Rhinovirus Serotype 12. Briefly: Plaque assay, minimal inhibitory concentration. The following applies: Enterovirus; HeLa Cells; inhibiting virus plaque formation by 50%. In kind it is cell-based.
A further test has as its system Rhinovirus strain 2. Briefly: Protection of tissue from cytopathic effects (plaque inhibition, filter paper disc or agar overlay). The following applies: 33°, 3 to 5 days. A general note: Damage to the host cells serves as the signal in cytopathic effect assays.
In a further test the test system is Rhinovirus Serotype 2. Briefly: Plaque assay, minimal inhibitory concentration. Particulars: Enterovirus, inhibiting virus plaque formation by 50%. Type of test: cell-based.

In the case of `N=C(Nc1ccccc1)Nc1nc(-c2ccccc2)cs1` [1-(4-phenyl-2-thiazolyl)-3-phenylguanidine], the concentration for half-maximal inhibition (IC50) is 0.2 to 0.4 mg/L (≈ 0.679 to 1.36 µM) in the test with Rhinovirus Serotype 12; 0.4 to 0.8 mg/L (≈ 1.36 to 2.72 µM) in the test with Rhinovirus Serotype 2 (L132, L-132 Cells); 0.4 mg/L (≈ 1.36 µM) with Rhinovirus Serotype 2 (Detroit-6 Cells); 0.4 to 0.8 mg/L (≈ 1.36 to 2.72 µM) in the test with Rhinovirus Serotype 2 (HeLa Cells). Further, the “Protection of tissue from destruction by virus” value in the test with Rhinovirus strain 2 is “+”.

Values taken from US4089965A, “Thiazolylphenylguanidines as antirhinovirus agents” (American Cyanamid Company, priority 1977, dated 1978).
